Reference: PMC10603899, “Reproducibility and Robustness of a Liver Microphysiological System PhysioMimix LC12 under Varying Culture Conditions and Cell Type Combinations” (Bioengineering, 2023)
Where a name gives a salt, the structure may show the parent alone. Read-outs that look alike come from different tables or passages of the source.

Tests used:
PHH (TF-HU8373) [1] = assay: Midazolam metabolism (1′-OH MDZ formation) in PhysioMimix LC-12, PHH monoculture; conditions: 5 µM MDZ; for 1′-OH MDZ Formed, Mean ± S.D. / 1′-OH MDZ Formed, Median: PhysioMimix LC-12, PHH
PHH (TF-HU8373) + THP-1 [2] = assay: Midazolam metabolism (1′-OH MDZ formation) in PhysioMimix LC-12, PHH + THP-1 co-culture; format: in vitro ADME, human; conditions: 5 µM MDZ
Description: Metabolic capacity was assessed across the various cell type conditions, including both types of hepatocytes. Midazolam (MDZ) was tested as a representative substrate for CYP3A4 [43]. Cells were treated with MDZ for up to 24 h on different days of culture, with sampling at 2, 6, and 24 h after treatment. The collected media was processed using high-performance liquid chromatography tandem mass spectrometry (HPLC-MS/MS) to determine the concentration of both the remaining parent compound (MDZ) and metabolites formed (1′-OH MDZ and 1′-OH MDZ glucuronide). We also tested the metabolism of equimolar mixtures (1 or 5 µM) of 20 pesticides that were previously used to evaluate the metabolic competence of different in vitro liver models. Cells were treated on day 6 of culture, and media were collected for analysis 48 h thereafter. Samples were analyzed using either gas chromatography (GC)-MS/MS or HPLC-MS/MS to determine whether parent molecule concentrations diminished, consistent with the metabolic activity of the cells.
The day when PHHs were seeded into PhysioMimix LC12 plates was defined as day 0 (Figure 1). PHHs were cultured in the PhysioMimix LC12 following the manufacturer’s protocols. PHHs were thawed into CHRM (CM7000, Thermo Fisher), centrifuged at 100× g for 10 min, resuspended in plating media, and then seeded into the PhysioMimix LC12 scaffold at a seeding density of 475,000–600,000 cells/chip. The flow was initiated at 1 µL/s.
For co-culture conditions, THP-1 monocytes and HMEC-1 endothelial cells were seeded either on day 0 or 1 at a seeding density of 60,000–160,000 cells/chip or 60,000 cells/chip, respectively. Primary KCs, HSCs, and LSECs were seeded either on day 0 or 1 at a seeding density of 100,000 cells/chip, 35,000 cells/chip, and 70,000–140,000 cells/chip, respectively. Cell seeding ratios were determined based on previous experiments or reports of the physiological cell ratios in the human liver. Media were collected and exchanged every 1–3 days by aspirating and replacing media from the media reservoir (1.8 mL/chip).
(§1) For evaluation of MDZ metabolism, cells were exposed on days 4–16 of culture to 5 µM MDZ (dissolved in methanol for the final concentration of 0.16% v/v). After drug addition, media were collected every 2, 6, and 24 h. After 24 h, the drug treatment media were replaced with fresh maintenance media. For the experiment with pesticide mixtures, we selected chemicals from the Agency for Toxic Substances and Disease Registry Substance Priority List, which contains compounds that are commonly detected at Superfund sites and are known to be hazardous to human health. A molar-equivalent mixture was created by combining all 20 pesticides and diluting them to a final concentration of 1 or 5 μM each in dimethyl sulfoxide (DMSO, final concentration 0.5% v/v). Media was collected 48 h after treatment for the analyses detailed below. For evaluation of immune-mediated toxicity with Trovafloxacin and LPS treatment, PHHs + THP-1 monocytes or PHHs + KCs were exposed on day 6 of culture to 25 or 100 µM of Trovafloxacin, with or without LPS. After 48 h, the drug treatment media were collected for biochemical assays detailed below.
After treatment with MDZ or pesticide mixtures (Supplemental Table S3), 50 µL media samples were mixed with 100 µL of 0.1 or 1 µM internal standard (Caffeine-13C3, C-082, Millipore Sigma; Supplemental Table S3) solution in acetonitrile on ice, respectively. Samples were vortexed and centrifuged (12,000× g, 10 min, room temperature) to allow for protein precipitation. The supernatant was collected from each sample, dried under vacuum, and reconstituted in 50 µL aqueous mobile phase. The reconstituted samples were transferred to glass autosampler vials with 200 µL inserts and stored at −20 °C prior to HPLC-MS/MS analysis. […]

PHH (various donors) [3] = tested on: PHH (various donors); set-up: method as in PMID 27338863; conditions: Suspension, day 0 of culture, incubation 0.17 h; cited from earlier work
PHH (TF-HU8373) [4] = assay: Midazolam metabolism (1′-OH MDZ formation) in 96-well plate, PHH; format: in vitro ADME, human; conditions: day 2, incubation 24 h
Description: For the PHH 2D model, 96-well plates were first coated with 200 μg/mL collagen I (CB354249, Corning Inc.) and 50 μg/mL fibronectin (F1141, Sigma-Aldrich, St. Louis, MO, USA) and incubated at 37 °C, 5% CO2 for 1 h. Thawed PHHs were collected by centrifugation (100× g, 10 min), resuspended in plating media, and seeded at a density of 50,000–60,000 cells/well. After incubation overnight, the media were changed to maintenance media. The total well volume was 100 μL, and plates were incubated at 37 °C, 5% CO2, with media refreshed every 1–2 days.
After drug addition, media were collected every 2, 6, and 24 h. After 24 h, the drug treatment media were replaced with fresh maintenance media. For the experiment with pesticide mixtures, we selected chemicals from the Agency for Toxic Substances and Disease Registry Substance Priority List, which contains compounds that are commonly detected at Superfund sites and are known to be hazardous to human health. A molar-equivalent mixture was created by combining all 20 pesticides and diluting them to a final concentration of 1 or 5 μM each in dimethyl sulfoxide (DMSO, final concentration 0.5% v/v). Media was collected 48 h after treatment for the analyses detailed below. […]

PHH (various donors) [5] = tested on: PHH (various donors); set-up: method as in PMID 25068923; conditions: LiverChip, day 4 of culture, estimated from figures, cited from earlier work
PHH (TF-HU8373) + THP-1 [6] = assay: Midazolam metabolism (1′-OH MDZ formation) in 96-well plate, PHH + THP-1; format: in vitro ADME, human; conditions: PHH + THP-1, day 2, incubation 24 h
[7] = tested on: PHHs (donor HU8373) + Kupffer cells; assay: Immune-mediated toxicity, trovafloxacin ± LPS in PhysioMimix LC12, PHH + Kupffer cells; format: cell-based; conditions: 48 h
Description: as §1
(§2) Cell culture media was collected every time media was exchanged (Figure 1) and stored frozen at −80 °C until analyses for various biomarkers, including albumin, urea, lactate dehydrogenase (LDH), and human interleukin-6 (IL-6). The ELISA assays for albumin (E88-129, Bethyl Laboratories, Montgomery, TX, USA), urea (EIABUN, ThermoFisher), LDH (ab102526, Abcam, Cambridge, UK), and IL-6 (D6050, R&D Systems) were conducted using manufacturer’s instructions. For CYP3A4 activity, the P450 Glo 3A4 with Luciferin-IPA assay (V9001, Promega, Madison, WI, USA) was used; this is a live cell assay, and it was conducted according to the manufacturer’s instructions as follows. The Luciferin-IPA substrate was diluted 1:1000 in maintenance media and added to chips or wells 1 h prior to reading luminescence using a plate reader (SpectraMax iD3, Molecular Devices, San Jose, CA, USA). After the assay, the media was replaced.
(§3) The last series of experiments was conducted to examine whether a co-culture of PHHs and NPCs in the PhysioMimix LC12 could model immune-mediated effects. […] We examined two conditions of use: HU8373 PHH with either THP-1 cells or Kupffer cells (Figure 8). Treatments (25 or 100 μM trovafloxacin) were added on […] with or without LPS (1 μg/mL) (Figure 1H) to replicate a well-established model of immune-mediated hepatotoxicity. We examined LDH leakage as a marker of cytotoxicity, CYP3A4 activity, and IL-6 secretion into the media as a marker of pro-inflammatory response. […] Few effects on CYP3A4 were observed, albeit inter-experimental variability was high (Figure 8B).
Figure 8 Immune-mediated toxicity in the PhysioMimix LC12. […]

[8] = tested on: PHHs (donor HU8373) + THP-1 cells; assay: Immune-mediated toxicity, trovafloxacin ± LPS in PhysioMimix LC12, PHH + THP-1; format: cell-based; conditions: 48 h
Description: as §1, §2, §3
Figure 8 Immune-mediated toxicity in the PhysioMimix LC12. Changes in LDH, CYP3A4, and IL-6 after 48 h trovafloxacin exposure with and without LPS in the PhysioMimix LC12 seeded with PHHs (donor HU8373) and non-parenchymal cells (THP-1 cells or Kupffer cells). (A) LDH leakage, (B) CYP3A4 activity, and (C) IL-6 release. Endpoints were normalized to the mean of the pretreatment samples (day 6 of the experiment). Data are plotted as box (interquartile range) and whiskers (min-max) with all individual values shown (n = 2–12). […] Brackets indicate statistical significance between groups at p < 0.05 by two-way ANOVA with Tukey’s multiple comparisons test.

[9] = PhysioMimix LC-12, PHH + THP-1, day 6, incubation 2 h
[10] = PhysioMimix LC-12, PHH + THP-1, day 6, incubation 24 h
[11] = PhysioMimix LC-12, PHH + THP-1, day 12, incubation 24 h
[12] = 25 and 100 μM trovafloxacin + LPS (1 μg/mL)
[13] = 25 or 100 μM trovafloxacin with or without LPS (1 μg/mL)

Cc1ncc2n1-c1ccc(Cl)cc1C(c1ccccc1F)=NC2 [midazolam, Midazolam]
Midazolam metabolism over time in culture (PHH (TF-HU8373) [1]; PhysioMimix LC12, HU8373 PHH, different cell combinations, 24 h): remained consistent over time

OCc1ncc2n1-c1ccc(Cl)cc1C(c1ccccc1F)=NC2 [1′-OH-midazolam, 1-hydroxymidazolam]
1′-OH MDZ Formed, Mean ± S.D. (PHH (TF-HU8373) [1]; day 6, incubation 2 h): 2.72 ± 1.75 pmol/min/1 M Hep.
1′-OH MDZ Formed, Median (PHH (TF-HU8373) [1]; day 6, incubation 2 h): 2.33 pmol/min/1 M Hep.
1′-OH MDZ Formed, Mean ± S.D. (PHH (TF-HU8373) [1]; day 6, incubation 24 h): 0.610 ± 0.403 pmol/min/1 M Hep.
1′-OH MDZ Formed, Median (PHH (TF-HU8373) [1]; day 6, incubation 24 h): 0.561 pmol/min/1 M Hep.
1′-OH MDZ Formed, Mean ± S.D. (PHH (TF-HU8373) [1]; day 12, incubation 24 h): 0.753 ± 0.612 pmol/min/1 M Hep.
1′-OH MDZ Formed, Median (PHH (TF-HU8373) [1]; day 12, incubation 24 h): 0.649 pmol/min/1 M Hep.
1′-OH MDZ Formed, Mean ± S.D. (PHH (TF-HU8373) + THP-1 [2]; [9]): 2.54 ± 1.64 pmol/min/1 M Hep.
1′-OH MDZ Formed, Median (PHH (TF-HU8373) + THP-1 [2]; [9]): 2.11 pmol/min/1 M Hep.
1′-OH MDZ Formed, Mean ± S.D. (PHH (TF-HU8373) + THP-1 [2]; [10]): 0.836 ± 0.556 pmol/min/1 M Hep.
1′-OH MDZ Formed, Median (PHH (TF-HU8373) + THP-1 [2]; [10]): 0.997 pmol/min/1 M Hep.
1′-OH MDZ Formed, Mean ± S.D. (PHH (TF-HU8373) + THP-1 [2]; [11]): 0.971 ± 0.910 pmol/min/1 M Hep.
1′-OH MDZ Formed, Median (PHH (TF-HU8373) + THP-1 [2]; [11]): 0.933 pmol/min/1 M Hep.
1′-OH MDZ Formed, Mean ± S.D. (PHH (various donors) [3]): 100 ± 106 pmol/min/1 M Hep.
1′-OH MDZ Formed, Median (PHH (various donors) [3]): 63.7 pmol/min/1 M Hep.
1′-OH MDZ Formed, Mean ± S.D. (PHH (TF-HU8373) [4]): 0.163 ± 0.064 pmol/min/1 M Hep.
1′-OH MDZ Formed, Median (PHH (TF-HU8373) [4]): 0.189 pmol/min/1 M Hep.
1′-OH MDZ Formed, Mean ± S.D. (PHH (various donors) [5]; incubation 2 h): 4.55 ± 2.27 pmol/min/1 M Hep.
1′-OH MDZ Formed, Mean ± S.D. (PHH (various donors) [5]; incubation 24 h): 0.216 ± 0.054 pmol/min/1 M Hep.
1′-OH MDZ Formed, Mean ± S.D. (PHH (TF-HU8373) + THP-1 [6]): 0.088 ± 0.077 pmol/min/1 M Hep.
1′-OH MDZ Formed, Median (PHH (TF-HU8373) + THP-1 [6]): 0.061 pmol/min/1 M Hep.

Lipopolysaccharide [LPS]
IL-6 secretion into the media ([7]; LPS alone (1 μg/mL)): Increases
IL-6 secretion into the media ([8]; LPS alone (1 μg/mL)): Increases

N[C@@H]1[C@H]2CN(c3nc4c(cc3F)c(=O)c(C(=O)O)cn4-c3ccc(F)cc3F)C[C@@H]12 [trovafloxacin, Trovafloxacin mesylate]
IL-6 secretion into the media ([7]; 100 μM trovafloxacin): Increases
Potentiating effect of LPS on trovafloxacin (IL-6 release) [7, 12]: significant potentiating effect
Effect on CYP3A4 activity [7, 13]: Few effects
IL-6 secretion into the media ([8]; 100 μM trovafloxacin): Increases
Potentiating effect of LPS on trovafloxacin (IL-6 release) [8, 12]: not THP-1 cells
Effect on CYP3A4 activity [8, 13]: Few effects
LDH leakage as compared to pre-treatment levels [8, 13]: Significant increases
